According to patent publication US20200399329A1, “ANTIMICROBIAL PEPTIDES” (priority 2015, published 2020):
Entries after “also recorded” stand apart in the source; their conditions may differ. Where a SMILES comes first, the peptide text is derived from it.

Experiments:
E. coli = assay: Antimicrobial activity after pre-treatment of peptide with Proteinase-K; format: cell-based; settings: 12.5 μM peptide pre-treated with 20 ng ProtK for 2 hours at 37° C., 18 hours
Description: The susceptibility of OMN6/CecA to proteolytic degradation was assessed and the effects of stability on activity were determined. Native peptide-CecA and engineered peptide-OMN6 were incubated with 20 ng of Proteinase-K (ProtK) at 37° C. for two hours (left bars and right bars, respectively). E. coli at 500,000 CFU/ml were incubated for 18 hours with either CecA or OMN6 pretreated with ProtK. After the incubation, bacterial survival was determined via absorption at OD600 nm and via CFU count on agar plates.

GFPuv E. coli = assay: GFP leakage from lysed GFPuv E. coli; format: cell-based; settings: 50 μM for 30 minutes
Description: In order to determine and evaluate the Mechanism of Action (MOA) by which the peptides achieve the remarkable antimicrobial effect they exert, the following experiments were conducted: GFPuv E. coli bacteria are a strain that upon induction expresses green fluorescent protein (GFP). The GFP fluorescence can be detected at 395/509 nm, while live bacteria can be detected via absorbance at 600 nm (OD600).
GFPuv E. coli bacteria ubiquitously express GFP in their cytoplasm upon induction and the fluorescent protein can be detected and visualized. […]
In another experiment, bacteria were grown and induced to express GFP. […] The supernatant (sup) from the two experiment groups CTRL and OMN6, was separated from the pellet and analyzed for the level of fluorescence units (FU) (see FIG. 4B). […] Fluorescence was detected only inside the bacteria which were concentrated in the pellet at the bottom of the tube. […] Both supernatants were probed for the presence of bacteria via absorbance at 600 nm and both supernatants were completely void of bacteria cells (data not shown). […] Thus, in the CTRL group, where the bacteria are intact, no fluorescence is detected in the sup while in the sup from the group treated with OMN6, the GFP that leaked out of the lysed cells is detected.

CC[C@H](C)[C@H](NC(=O)CNC(=O)[C@H](CC(=O)O)NC(=O)[C@H](CCCNC(=N)N)NC(=O)[C@@H](NC(=O)[C@H](CC(N)=O)NC(=O)[C@H](CCC(N)=O)NC(=O)CNC(=O)[C@@H](NC(=O)[C@H](CCCCN)NC(=O)[C@H](CCC(=O)O)NC(=O)[C@@H](NC(=O)[C@H](CCCCN)NC(=O)[C@H](CCCCN)NC(=O)[C@H](Cc1ccccc1)NC(=O)[C@H](CC(C)C)NC(=O)[C@H](CCCCN)NC(=O)[C@H](Cc1c[nH]c2ccccc12)NC(=O)[C@H](CCCCN)NC(=O)[C@H](CS)NC(=O)[C@@H](N)CCSC)[C@@H](C)CC)C(C)C)[C@@H](C)CC)C(=O)N[C@H](C(=O)N[C@@H](CCCCN)C(=O)N[C@@H](C)C(=O)NCC(=O)N1CCC[C@H]1C(=O)N[C@@H](C)C(=O)N[C@H](C(=O)N[C@@H](C)C(=O)N[C@H](C(=O)N[C@H](C(=O)NCC(=O)N[C@@H](CCC(N)=O)C(=O)N[C@@H](C)C(=O)N[C@H](C(=O)N[C@@H](CCC(N)=O)C(=O)N[C@H](C(=O)N[C@@H](C)C(=O)N[C@@H](CCCCN)C(=O)N[C@@H](CS)C(N)=O)[C@@H](C)CC)[C@@H](C)O)C(C)C)C(C)C)C(C)C)[C@@H](C)CC [OMN6] (H-MCKWKLFKKIEKVGQNIRDGIIKAGPAVAVVGQATQIAKC-NH2; N-terminus and C-terminus assumed)
Bacterial survival/growth as percent of CTRL group (E. coli): less than 10%
GFP leakage / lysis of bacteria (GFPuv E. coli): massive leaking of GFP; also recorded: extensive lysis
